Measured values reported in patent US12691107B2, “Methods for the treatment and prevention of lung infections caused by gram-positive bacteria, fungus, or virus by administration of tafenoquine” (priority 2020, dated 2026).
Like-named read-outs stand apart in the source and are kept apart here.

What was measured:
[1] = tested on: Candida albicans; test: Antifungal MIC (RPMI-1640 microdilution); assay type: cell-based
[2] = tested on: Candida glabrata; test: Antifungal MIC (RPMI-1640 microdilution); assay type: cell-based
[3] = tested on: Curvularia sp.; test: Antifungal MIC (RPMI-1640 microdilution); assay type: cell-based
[4] = tested on: Emergomyces sp.; test: Antifungal MIC (RPMI-1640 microdilution); assay type: cell-based
[5] = tested on: K. pneumoniae; test: Antibacterial MIC (broth microdilution); assay type: cell-based; settings: Klebsiella pneumoniae
[6] = tested on: RSV, MERS coronavirus and influenza A H1N1; assay type: cell-based
[7] = tested on: HFF, mouse embryo fibroblast and Guinea Pig Lung cells; settings: range over all three cytomegalovirus assays
[8] = tested on: Pneumocystis; settings: cited from earlier work
[9] = rat, in vivo, 125 mg/kg; cited from earlier work

COc1cc(C)c2c(Oc3cccc(C(F)(F)F)c3)c(OC)cc(NC(C)CCCN)c2n1.O=C(O)CCC(=O)O (stereo not shown) [Tafenoquine Succinate]
MIC50 ([1]; ATCC90028, read-out: MIC 50% inhibition, isolate ATCC 90028): 4 µg/mL | MIC ([1]; ATCC90028, read-out: MIC 100% inhibition, isolate ATCC 90028): 4 µg/mL | MIC50 ([1]; read-out: MIC 50% inhibition, isolate CA3): 4 µg/mL | MIC50 ([1]; read-out: MIC 50% inhibition, isolate SC5314): 8 µg/mL | MIC ([1]; read-out: MIC 100% inhibition, isolate CA3): 4 µg/mL | MIC ([1]; read-out: MIC 100% inhibition, isolate SC5314): 8 µg/mL | MIC50 ([2]; Nakaseomyces glabratus, read-out: MIC 50% inhibition, isolate 05-62): 8 µg/mL | MIC50 ([2]; Nakaseomyces glabratus, read-out: MIC 50% inhibition, isolate 05-761): 8 µg/mL | MIC50 ([2]; Nakaseomyces glabratus, read-out: MIC 50% inhibition, isolate CG3): 8 µg/mL | MIC ([2]; Nakaseomyces glabratus, read-out: MIC 100% inhibition, isolate 05-62): 8 µg/mL | MIC 100% inhibition ([2]; isolate 05-761): 8 µg/mL | MIC 100% inhibition ([2]; isolate CG3): 8 µg/mL | MIC50 ([3]; read-out: MIC 50% inhibition, isolate Curv1): 2 µg/mL | MIC ([3]; read-out: MIC 100% inhibition, isolate Curv1): 8 µg/mL | MIC 100% inhibition ([4]; isolate Emerg3): 4 µg/mL | MIC50 ([4]; read-out: MIC 50% inhibition, isolate Emerg2): 4 µg/mL | MIC50 ([4]; read-out: MIC 50% inhibition, isolate Emerg3): 2 µg/mL | MIC ([4]; read-out: MIC 100% inhibition, isolate Emerg2): 4 µg/mL | MIC ([5]; ATCC70063, isolate ATCC 70063): > 64 µg/mL | MIC ([5]; isolate AR-97): > 64 µg/mL | MIC ([5]; isolate AR-113): > 64 µg/mL

COc1cc(C)c2c(Oc3cccc(C(F)(F)F)c3)c(OC)cc(NC(C)CCCN)c2n1 (stereo not shown) [Tafenoquine, N(4)-[2,6-Dimethoxy-4-methyl-5-[3-(trifluoromethyl)phenoxy]quinolin-8-yl]pentane-1,4-diamine]
antiviral activity [6]: too cytotoxic to the cell lines used to determine whether antiviral activity was present | CC50s [7]: 13 to 17 µM | Approximate EC50 of tafenoquine against Pneumocystis in vitro [8]: ~1 µg/mL | Maximum plasma concentration following a single 125 mpk dose in female rats [9]: 2240 ng/mL
